Measured values published in ChEMBL document CHEMBL1150664, “New bioactive peroxides from marine sponges of the family plakiniidae” (2002).
Converted amounts (≈) assume the structure as drawn.

Each compound was assayed on Candida albicans (assay: Antimicrobial activity against Candida albicans by standard microdilution broth method).
Format: functional

| SMILES | MIC [µg/mL] |
| --- | --- |
| CC(CCCCCCC/C=C/C=C/c1ccccc1)C[C@]1(C)C[C@@](C)(CC(=O)O)OO1 (relative stereo) | 1.6 (≈ 3.73 µM) |
| Nc1nc(=O)[nH]cc1F [FLUCYTOSINE] | 1.62 (≈ 12.5 µM) |
| CC/C=C/C(CC)C/C=C/[C@@]1(CC)C[C@H](CC)[C@@H](CC(=O)O)OO1 (stereo partly specified) | 5 (≈ 14.8 µM) |
| CC(CCCCCCC/C=C/C=C/c1ccccc1)C[C@]1(C)C[C@](C)(CC(=O)O)OO1 (relative stereo) | 1.6 (≈ 3.73 µM) |

What follows are compounds tested on Aspergillus fumigatus (assay: Antimicrobial activity against Aspergillus fumigatus by standard microdilution broth method).
Format: functional

| SMILES | IC90 [µg/mL] |
| --- | --- |
| CC/C=C/C(CC)C/C=C/[C@@]1(CC)C[C@H](CC)[C@@H](CC(=O)O)OO1 (stereo partly specified) | 5.6 (≈ 16.5 µM) |
| C[C@@H]1[C@H](O)[C@@H](C)/C=C/C=C/C=C/C=C/C=C/C=C/C=C/[C@H](O[C@@H]2O[C@H](C)[C@@H](O)[C@H](N)[C@@H]2O)C[C@@H]2O[C@](O)(C[C@@H](O)C[C@@H](O)[C@H](O)CC[C@@H](O)C[C@@H](O)CC(=O)O[C@H]1C)C[C@H](O)[C@H]2C(=O)O [AMPHOTERICIN B] | 1 (≈ 1.08 µM) |
